Values quoted from earlier work in patent US8828412B2, “Stable polyphenol containing ophthalmic emulsion for treating dry eyes” (Abbott Medical Optics Inc., priority 2009, dated 2014).

Conditions: reported; species not stated

oral bioavailability: about 60%
SMILES: COc1cc(/C=C/C(=O)CC(=O)/C=C/c2ccc(O)c(OC)c2)ccc1O [curcumin]
